The test system of one test is H/R-induced H9c2 cells. Put plainly: Impact of survival pathway inhibitors on AP1-induced cardio-protection (MVS assay). The following applies: with 200 μg/mL AP1; mifepristone 100 μM, tamoxifen 100 μM, L-NAME 10 μM, LY294002 40 μM, Akt inhibitor IV 10 μM, U0126 40 μM (FIG. 11).
Test [1] relates to H9c2 cells. Put plainly: Cell morphology in the H/R model. The test is classed as cell-based, rat. The conditions noted are these: 100 μM, pretreatment, H/R (FIG. 8E). The text has this:
FIG. 8A through 8E show the cell morphology of H9c2 cell pretreated with the carbohydrate composition AP1 in the H/R model. […] All photos (magnification power 200×) were taken after reoxygenation.
The medium was changed every two days, and the confluent cells were passaged by trypsinization weekly. The cells passaged for three to four times were used for experiments described as below.

Test [2] has as its system H9c2 cells. Put plainly: Flow cytometric analysis of cardiomyocyte apoptosis (Annexin V/PI). The format is cell-based, rat. The conditions noted are these: 100 μM, H/R, H/R group 46.0%. The text has this: The normal group (Normal) was always maintained in normoxic condition. The cells were then stained with Annexin V-FITC and PI for apoptosis analysis by flow cytometry. Cells in the lower-left quadrant (Q3), unstained for both Annexin V-FITC and PI, are defined as viable cells. Cells in the lower-right quadrant (Q4), stained for Annexin V-FITC but negative for PI, are defined as early-medium apoptotic cells. Cells in the upper-right quadrant (Q2), positive for both Annexin V-FITC and PI, are defined as late apoptotic and necrotic populations. […] The percentage of apoptotic cells measured using the Annexin-V/PI kit for flow cytometry as manufacturer's instruction. […] Cells were re-suspended in 1× binding buffer containing propidium iodide (PI) and FITC-labelled Annexin V and incubated for 15 min at 37° C. in the dark, and analyzed with flow cytometry (FACS Vantage-BD Sciences, USA). The data was analyzed using Flow J software for determining the percent of apoptotic cells.
(In general: Flow cytometry measures light scatter and fluorescence of single cells or particles in a stream.)

Test [3] relates to NO in culture medium of H9c2 cells. Put plainly: Nitric oxide (NO) production, Griess reaction. The conditions noted are these: L-NAME 10 μmol/L, H/R (FIG. 12). The format is cell-based, rat. On the procedure: FIG. 12 illustrates the effect of carbohydrate composition AP1 on NO production. […] The normal group (Normal) was always maintained in normoxic condition. The changes of NO levels in culture medium of H9c2 cells following H/R injury were determined by Griess reagent.
The concentration of NO in the culture medium was determined by the Griess reaction with minor changes (Chen, X. P. et al., Journal of Neuroinflammation 9, 2012). At the end of the cell culture, 40 μL cell culture fluid, 10 μL NADPH, and 40 μL basal solution (0.03 M PBS; 1.25 mM glucose-6-phosphate; 400 U/L glucose-6-phosphate dehydrogenase; 200 U/L nitrate reeducates) was incubated in a 96 well microtiter plate for 45 min at room temperature. Next, 50 μL Griess reagent was added and the solution incubated for 20 min in the dark at room temperature. Finally, the absorbance of the samples was measured at 540 nm. Concentrations of NO in the sample were calibrated with a reference standard of sodium nitrite (NaNO2) supplied with the kit and the levels of NO were expressed as μM.
In general terms: Griess reagent forms a coloured azo dye with nitrite.

The source of these data is US10220064B2, “Carbohydrate composition extracted from Panax ginseng and its use in the treatment of ischemic conditions” (Macau University of Science and Technology, priority 2016, dated 2019).

Experimental for H/R-induced H9c2 cells: H9c2 cells were pre-cultured in the presence or absence of survival pathway inhibitors, including mifepristone (MP, 100 μM), tamoxifen (TX, 100 μM), L-NAME (LM, 10 μmol/L), LY294002 (LY, 40 μM), Akt inhibitor IV (IV, 10 μM), U0126 (40 μM) with or without 200 μg/mL AP1 for 1 h, and then exposed further to H/R injury. The normal group (NOR) was always maintained in normoxic condition. Cell death was assessed by MVS assay. All measurements were repeated in six wells, the results are the average of three independent experiments. All values are expressed as mean±SD. ^^^P<0.001 vs. NOR, ***P<0.001 vs. H/R, ^##P<0.01 vs. AP1 under H/R, ^###P<0.001 vs. AP1 under H/R.
To examine the effectiveness of RSE and AP1 on H9c2 cells under hypoxia/reoxygenation conditions, the cells were cultured under normoxic conditions (95% air/5% CO2) overnight; then the cells were washed twice with Krebs-Ringer Bicarbonate buffer (composition in mM: NaCl 115, KCl 4.7, CaCl2 2.5, KH2PO4 1.2, MgSO4 1.2, NaHCO3 24, HEPES 10; pH 7.4) balanced with N2 at 4° C. for overnight. Aliquots (100 μL) of KRB supplemented with 0.01% (w/v) BSA were added to the cells immediately prior to hypoxia. To create a hypoxia condition, a hypoxic chamber (Stem Cell Technologies, USA) was used to produce an in vitro hypoxia challenge (Chiu, P. Y. et al., Molecular and cellular biochemistry 350, 237-250, 2011). In essence, the cells were placed in the sealed chamber and the chamber was flushed with pure N2 for 5 min at a flow rate of 20 mL/min, then, all sealable connectors were closed. After that, the chamber was transferred to an incubator and the cells in the chamber were subjected to 3 h incubation at 37° C. to induced hypoxia. Reoxygenation was initiated by opening the chamber and then replacing the KRB with fresh DMEM medium, the cells were then cultured in an incubator under normoxic conditions (95% air/5% CO2) at 37° C. for another 4 h.
The cells were seeded at the density of 8×10^4 cells/well in a 96-well plate. […] The control normal group was always maintained in normal DMEM and put in the incubator under normoxic atmosphere (95% air/5% CO2). For pharmaceutical blockages, the cells were treated with mifepristone (an inhibitor of GR, 100 μM), tamoxifen (an inhibitor of ER, 100 μM), L-NAME (an inhibitor of NOS, 10 μM), LY294002 (an inhibitor of PI3K, 40 μM), Akt inhibitor IV (an inhibitor of Akt protein kinase, 10 μM), U0126 (an inhibitor of Erk1/2, 40 μM) right before the pretreatment of AP1 (200 μg/mL).
The cell viability was evaluated by MVS assay (Sathishkumar, K. et al., Free Radicals and Antioxidant Protocols, 51-61, 2010). Briefly, at the end of the cell culture, the cells were overlaid with 100 μL of 2×mitochondrial viability stain in each well containing 100 μL of medium and then incubated under normoxic condition (95% air/5% CO2) for 4 h in the dark. The fluorescent intensity was measured at excitation 550 nm and emission 590 nm by a TECAN Infinite M200 micro plate reader (Tecan, Durham, USA).

In the case of `CC[n+]1c(/C=C/N(C)c2ccccc2)n(-c2ccccc2)c2ccc(-c3nc4ccccc4s3)cc21.[I-]` [Akt inhibitor IV], the “effect of inhibitor on protective effects of AP1 on H/R-induced cell death” value (from here on “effect of inhibitor”) in the test with H/R-induced H9c2 cells is “abolished the protective effects of AP1”.

As for `CC1=NS(=O)(=O)c2cc(Cl)ccc2N1` [DZ, diazoxide], the “protection in H/R induced cell death” value in the test on H9c2 cells [1] was “significant protection”. Also, in the test with H9c2 cells [2], the “apoptosis (apoptotic cell accumulation)” value was found to be 22.2±3.8%.

As to `COC(=O)[C@@H](N)CCCNC(=N)N[N+](=O)[O-]` [L-NAME], in the test with H/R-induced H9c2 cells, the “effect of inhibitor” value is given as “abolished the protective effects of AP1”. The NO production result in test [3] is listed as “significantly abolished”.

In the case of `N#CC(=C(/N)Sc1ccccc1N)/C(C#N)=C(\N)Sc1ccccc1N` [U0126], in the test with H/R-induced H9c2 cells, the “effect of inhibitor” value is given as “abolished the protective effects of AP1”.

Regarding `CC#C[C@]1(O)CC[C@H]2[C@@H]3CCC4=CC(=O)CCC4=C3[C@@H](c3ccc(N(C)C)cc3)C[C@@]21C` [mifepristone], the “effect of inhibitor” value in the test with H/R-induced H9c2 cells is reported as “abolished the protective effects of AP1”.

For the compound `CC/C(=C(\c1ccccc1)c1ccc(OCCN(C)C)cc1)c1ccccc1` [tamoxifen], in the test on H/R-induced H9c2 cells, the “effect of inhibitor” value is “abolished the protective effects of AP1”.
